Data on one compound can be found in patent US20040157784A1, “Opiod tannate compositions” (Jame Fine Chemicals, Inc., priority 2003, published 2004).

A short description of the series: Solubility of hydrocodone free base in methylene chloride (solvent of the reaction completion test).

In the case of `COc1ccc2c3c1O[C@H]1C(=O)CC[C@H]4[C@@H](C2)N(C)CC[C@]314` [hydrocodone free base], the “soluble to the extent of (methylene chloride)” value is 99.94%.
